The numbers were not newly measured in patent US20100215746A1, “PREVENTION OF CISPLATIN INDUCED DEAFNESS” (THE REGENTS OF THE UNIVERSITY OF MICHIGAN, priority 2002, published 2010), which cites them from elsewhere.

The test system of data set [1] is neuropathic and ototoxic effects of cisplatin. The conditions noted are these: co-administration with cisplatin.
For data set [2], the system named is hearing. To be noted: human, in vivo.

With `NCCCNCCSP(=O)(O)O` [amifostine], in data set [1], the “effectiveness in ameliorating neuropathic and ototoxic effects of cisplatin” value was “does not appear to be effective”. For `N.N.[Cl][Pt][Cl]` [cisplatin], in data set [2], the “reported incidence of cisplatin-induced hearing loss” value is given as 9-90%.
